ChEMBL document CHEMBL5236570, “Substitution of a triazole for the central olefin in biologically active stilbenes” (2022)

Key:
SF-295 = assay: Growth inhibition of human SF-295 cells; format: functional
[1] = tested on: Panel NCI-60 (60 carcinoma cell lines); assay: Growth inhibition of human Panel NCI-60 cells; format: functional

| SMILES | GI50 (SF-295) [nM] | GI50 [1] [nM] |
| --- | --- | --- |
| COc1cc(-n2cc(-c3cc(O)c(C/C=C(\C)CCC=C(C)C)c(O)c3)nn2)cc2c1O[C@]1(C)CC[C@@H](O)C(C)(C)[C@H]1C2 | 35 | 710 |
| COc1cc(CCc2cc(O)c(C/C=C(\C)CC/C=C(\C)CO)c(O)c2)cc2c1O[C@]1(C)CC[C@@H](O)C(C)(C)[C@H]1C2 | 2500 | 4900 |
| COc1cc(/C=C/c2cc(O)c(C/C=C(\C)CCC=C(C)C)c(O)c2)cc2c1O[C@]1(C)CC[C@@H](O)C(C)(C)[C@H]1C2 [3-DEOXYSCHWEINFURTHIN B] | 62 | 620 |
| CC(C)=CCC/C(C)=C/Cc1c(O)cc(/C=C/c2cc(O)c3c(c2)C[C@@H]2C(C)(C)[C@H](O)[C@H](O)C[C@@]2(C)O3)cc1O [SCHWEINFURTHIN A] | 11 | 360 |
